Results published in US20230219986A1, “NOVEL AMINOPYRIMIDINE EGFR INHIBITOR” (QILU PHARMACEUTICAL CO., LTD., priority 2020, published 2023).
pIC50: −log10 of the molar value.

What was measured:
[1] = target: T1, wild-type EGFR (Homo sapiens, UniProt P00533); experiment: Enzymology experiment in vitro (HTRF/FRET kinase activity), wild-type EGFR; format: biochemical; conditions: HTRF KinEASE-TK, read-out: EGFR (WT) IC50
T1 construct: purchased Signalchem
Outline: (§1)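 Kinase reaction run 40 min at room temperature with peptide and ATP after a 10 min compound–enzyme preincubation. Phosphorylation read as HTRF signal after 1 h with Eu³⁺ antibody, XL665-streptavidin and EDTA (Cisbio KinEASE-TK).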

[2] = target: T2, L858R/T790M/C797S triple mutant EGFR (Homo sapiens, UniProt P00533, C797S/L858R/T790M); experiment: Enzymology experiment in vitro (HTRF/FRET kinase activity), L858R/T790M/C797S triple mutant EGFR; format: biochemical; conditions: HTRF KinEASE-TK, read-out: EGFR (L858R/T790M/C797S) IC50
T2 construct: purchased Signalchem
Outline: as §1

[3] = tested on: EGFR wild-type cell line A431; experiment: Cell proliferation inhibition experiment (CellTiter-Glo), A431; format: cell-based; conditions: Homo sapiens, A-431, 72 h, A431 cells, Cell Titer-Glo, read-out: A431 EGFR WT IC50
Outline: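 Luminescent CellTiter-Glo readout, 30 min at room temperature, after 72 h compound exposure at 37° C., 5% CO2 with 0.1% DMSO final. EGFR wild-type A431 cells were seeded at 800 per well and grown 24 h before dosing. IC50 derived from the dose-response.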

[4] = target: Ba/F3 De119/T790M/C797S EGFR triple mutant cell line (Homo sapiens, UniProt P00533, T790M/C797S, cells depend on it, form not given); experiment: Cell proliferation inhibition experiment (CellTiter-Glo), Ba/F3 De119/T790M/C797S; format: cell-based; conditions: Ba/F3 Del19/T790M/C797S EGFR triple mutant cells, 72 hours, Cell Titer-Glo; read-out: Ba/F3 (Del19/T790M/C797S) IC50
[5] = target: Ba/F3 L858R/T790M/C797S EGFR triple mutant cell line (Homo sapiens, UniProt P00533, T790M/C797S/L858R, cells depend on it); experiment: Cell proliferation inhibition experiment (CellTiter-Glo), Ba/F3 L858R/T790M/C797S; format: cell-based; conditions: 72 hours, Cell Titer-Glo, read-out: Ba/F3 (L858R/T790M/C797S) IC50
Sequence of Ba/F3 L858R/T790M/C797S EGFR triple mutant cell line (P00533 whole entry T790M/C797S/L858R): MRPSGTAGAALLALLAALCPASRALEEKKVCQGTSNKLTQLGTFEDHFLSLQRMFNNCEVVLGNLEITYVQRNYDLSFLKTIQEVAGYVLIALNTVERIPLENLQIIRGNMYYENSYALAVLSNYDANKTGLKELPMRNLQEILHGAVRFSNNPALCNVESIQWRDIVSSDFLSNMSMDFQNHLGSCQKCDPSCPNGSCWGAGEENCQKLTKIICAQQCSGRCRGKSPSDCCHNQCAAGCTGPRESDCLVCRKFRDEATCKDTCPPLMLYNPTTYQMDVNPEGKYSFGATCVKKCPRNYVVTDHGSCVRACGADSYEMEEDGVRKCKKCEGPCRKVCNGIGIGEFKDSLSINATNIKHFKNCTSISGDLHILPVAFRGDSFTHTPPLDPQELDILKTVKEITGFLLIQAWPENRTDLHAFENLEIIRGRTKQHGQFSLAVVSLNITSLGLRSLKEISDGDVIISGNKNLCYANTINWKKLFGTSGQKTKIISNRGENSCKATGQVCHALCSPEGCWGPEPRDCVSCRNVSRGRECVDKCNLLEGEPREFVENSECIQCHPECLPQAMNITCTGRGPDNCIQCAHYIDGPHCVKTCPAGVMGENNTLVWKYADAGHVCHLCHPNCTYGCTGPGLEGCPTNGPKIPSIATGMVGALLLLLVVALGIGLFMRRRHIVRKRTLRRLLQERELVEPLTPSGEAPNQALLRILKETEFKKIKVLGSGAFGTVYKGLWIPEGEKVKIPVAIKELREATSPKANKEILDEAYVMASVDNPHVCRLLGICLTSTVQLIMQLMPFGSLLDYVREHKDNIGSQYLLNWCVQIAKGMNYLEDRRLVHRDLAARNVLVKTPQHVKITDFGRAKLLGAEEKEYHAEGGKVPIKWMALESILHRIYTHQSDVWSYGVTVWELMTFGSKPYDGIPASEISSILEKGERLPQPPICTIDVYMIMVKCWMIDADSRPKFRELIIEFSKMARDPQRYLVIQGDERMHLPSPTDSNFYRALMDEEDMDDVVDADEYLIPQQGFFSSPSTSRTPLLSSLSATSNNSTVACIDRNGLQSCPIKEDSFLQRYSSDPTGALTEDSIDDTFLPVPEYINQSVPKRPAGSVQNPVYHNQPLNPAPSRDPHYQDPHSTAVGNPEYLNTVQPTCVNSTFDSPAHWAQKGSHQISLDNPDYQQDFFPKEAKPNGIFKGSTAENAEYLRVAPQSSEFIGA

Sequence of Ba/F3 De119/T790M/C797S EGFR triple mutant cell line (P00533 with tags, fused parts or gaps DEL746-750/T790M/C797S, form open): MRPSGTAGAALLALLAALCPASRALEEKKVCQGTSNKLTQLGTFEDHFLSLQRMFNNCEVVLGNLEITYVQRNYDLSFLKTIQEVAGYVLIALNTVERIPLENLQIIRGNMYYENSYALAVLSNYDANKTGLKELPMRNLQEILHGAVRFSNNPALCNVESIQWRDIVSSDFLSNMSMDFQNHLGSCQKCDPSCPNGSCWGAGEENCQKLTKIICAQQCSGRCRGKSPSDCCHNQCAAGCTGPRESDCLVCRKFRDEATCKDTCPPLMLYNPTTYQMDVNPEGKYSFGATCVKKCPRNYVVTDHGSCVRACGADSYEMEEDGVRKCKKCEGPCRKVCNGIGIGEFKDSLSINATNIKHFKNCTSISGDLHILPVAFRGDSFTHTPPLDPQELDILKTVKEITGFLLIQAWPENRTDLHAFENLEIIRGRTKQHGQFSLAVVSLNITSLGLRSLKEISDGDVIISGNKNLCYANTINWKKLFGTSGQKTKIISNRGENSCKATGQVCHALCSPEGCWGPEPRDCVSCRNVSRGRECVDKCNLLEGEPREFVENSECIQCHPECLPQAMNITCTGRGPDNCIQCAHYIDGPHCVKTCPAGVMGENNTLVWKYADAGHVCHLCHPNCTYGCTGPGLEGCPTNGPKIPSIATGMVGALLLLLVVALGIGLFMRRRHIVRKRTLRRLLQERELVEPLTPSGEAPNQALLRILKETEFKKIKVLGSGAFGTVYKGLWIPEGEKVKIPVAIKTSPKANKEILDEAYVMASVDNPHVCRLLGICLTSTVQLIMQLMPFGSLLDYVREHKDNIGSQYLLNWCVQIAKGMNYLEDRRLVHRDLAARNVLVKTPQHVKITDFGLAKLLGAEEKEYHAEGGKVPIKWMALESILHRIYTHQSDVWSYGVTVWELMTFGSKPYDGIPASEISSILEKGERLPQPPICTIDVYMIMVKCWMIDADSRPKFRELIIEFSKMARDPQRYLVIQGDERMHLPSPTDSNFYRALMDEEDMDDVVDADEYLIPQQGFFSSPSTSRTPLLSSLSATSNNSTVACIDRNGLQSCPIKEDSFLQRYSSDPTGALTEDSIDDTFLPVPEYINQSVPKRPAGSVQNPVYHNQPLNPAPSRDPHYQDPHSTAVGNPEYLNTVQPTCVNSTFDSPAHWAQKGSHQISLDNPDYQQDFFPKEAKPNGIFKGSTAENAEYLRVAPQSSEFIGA
T1 sequence (P00533 25-1210): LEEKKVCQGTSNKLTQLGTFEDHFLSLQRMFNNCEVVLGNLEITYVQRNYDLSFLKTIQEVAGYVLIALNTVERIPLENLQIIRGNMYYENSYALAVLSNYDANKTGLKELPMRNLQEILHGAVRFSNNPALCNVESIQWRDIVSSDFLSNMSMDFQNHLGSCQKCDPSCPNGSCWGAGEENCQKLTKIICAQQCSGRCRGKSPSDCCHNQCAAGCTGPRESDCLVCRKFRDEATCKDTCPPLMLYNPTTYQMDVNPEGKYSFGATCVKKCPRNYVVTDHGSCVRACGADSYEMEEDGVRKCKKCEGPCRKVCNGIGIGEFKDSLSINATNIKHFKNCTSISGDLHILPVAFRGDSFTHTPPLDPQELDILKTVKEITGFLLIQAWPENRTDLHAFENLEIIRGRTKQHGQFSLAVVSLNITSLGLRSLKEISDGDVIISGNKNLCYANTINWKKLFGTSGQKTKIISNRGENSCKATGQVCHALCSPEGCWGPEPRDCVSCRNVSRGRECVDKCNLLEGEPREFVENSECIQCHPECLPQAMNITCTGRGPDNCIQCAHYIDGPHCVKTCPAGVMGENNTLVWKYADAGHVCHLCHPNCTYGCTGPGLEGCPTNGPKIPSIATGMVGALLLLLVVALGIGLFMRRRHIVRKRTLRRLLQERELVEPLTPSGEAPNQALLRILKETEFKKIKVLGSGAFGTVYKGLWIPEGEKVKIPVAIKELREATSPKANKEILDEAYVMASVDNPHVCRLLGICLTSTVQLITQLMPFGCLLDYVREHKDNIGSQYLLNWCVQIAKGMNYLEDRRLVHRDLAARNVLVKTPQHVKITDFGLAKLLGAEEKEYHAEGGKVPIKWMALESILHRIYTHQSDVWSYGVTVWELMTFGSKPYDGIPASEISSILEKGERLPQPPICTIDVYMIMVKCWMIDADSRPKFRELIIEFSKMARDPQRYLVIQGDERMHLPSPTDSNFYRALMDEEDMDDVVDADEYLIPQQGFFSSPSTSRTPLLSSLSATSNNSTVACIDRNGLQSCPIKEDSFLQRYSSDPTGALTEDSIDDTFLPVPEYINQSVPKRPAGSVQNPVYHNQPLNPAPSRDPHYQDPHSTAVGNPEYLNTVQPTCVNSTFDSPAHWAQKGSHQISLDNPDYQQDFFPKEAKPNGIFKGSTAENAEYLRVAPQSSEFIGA
T2 sequence (P00533 25-1210 T790M/C797S/L858R): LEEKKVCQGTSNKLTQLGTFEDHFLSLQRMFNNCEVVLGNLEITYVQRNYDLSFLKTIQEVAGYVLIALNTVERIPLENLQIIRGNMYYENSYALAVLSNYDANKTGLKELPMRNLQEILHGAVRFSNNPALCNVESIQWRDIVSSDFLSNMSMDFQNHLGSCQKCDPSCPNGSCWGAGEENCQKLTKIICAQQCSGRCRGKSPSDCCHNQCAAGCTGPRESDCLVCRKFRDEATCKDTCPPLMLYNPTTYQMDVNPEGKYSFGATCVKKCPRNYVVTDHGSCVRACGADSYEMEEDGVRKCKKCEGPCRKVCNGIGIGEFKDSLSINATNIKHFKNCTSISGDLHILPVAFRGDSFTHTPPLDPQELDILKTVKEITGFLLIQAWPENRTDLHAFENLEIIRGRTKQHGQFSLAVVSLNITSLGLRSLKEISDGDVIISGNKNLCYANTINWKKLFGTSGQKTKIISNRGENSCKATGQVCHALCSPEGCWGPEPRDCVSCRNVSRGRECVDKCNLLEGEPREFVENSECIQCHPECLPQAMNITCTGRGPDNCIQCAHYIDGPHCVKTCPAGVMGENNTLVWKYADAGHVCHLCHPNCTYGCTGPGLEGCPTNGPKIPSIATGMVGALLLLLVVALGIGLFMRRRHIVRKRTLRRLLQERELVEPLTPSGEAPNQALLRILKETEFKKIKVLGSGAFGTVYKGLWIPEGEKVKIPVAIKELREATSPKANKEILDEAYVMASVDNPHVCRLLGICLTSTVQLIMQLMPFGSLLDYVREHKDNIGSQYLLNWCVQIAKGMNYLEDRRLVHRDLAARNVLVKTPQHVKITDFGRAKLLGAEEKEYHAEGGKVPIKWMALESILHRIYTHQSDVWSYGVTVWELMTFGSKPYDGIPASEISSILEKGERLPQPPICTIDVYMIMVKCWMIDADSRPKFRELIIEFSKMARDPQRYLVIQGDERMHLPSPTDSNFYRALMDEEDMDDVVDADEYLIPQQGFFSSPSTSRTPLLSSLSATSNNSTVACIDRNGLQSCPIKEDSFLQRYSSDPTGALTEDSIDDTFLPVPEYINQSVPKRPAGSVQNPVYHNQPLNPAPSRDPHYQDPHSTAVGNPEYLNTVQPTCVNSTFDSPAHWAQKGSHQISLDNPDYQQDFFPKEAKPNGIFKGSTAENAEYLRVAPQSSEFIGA

Structure (SMILES)	pIC50 [1]	pIC50 [2]	pIC50 [3]	GI50 [4] [nM]	GI50 [5] [nM]
COc1cc(N2CCN3CCCCC3C2)c(-c2cnn(C)c2)cc1Nc1ncc(Br)c(Nc2ccc3nccnc3c2P(C)(C)=O)n1 (stereo not shown) [compound 131]	8.59	9.92	7.17	0.6	7.17
COCCN1CCN(c2cc(OC)c(Nc3ncc(Br)c(Nc4ccccc4NS(C)(=O)=O)n3)cc2-c2cnn(C)c2)CC1 [compound 132]	8.24	10.15	6.57	2.45	30
COc1cc(N2CCC3(CCN(CCF)CC3)CC2)c(-c2cnn(C)c2)cc1Nc1ncc(Br)c(Nc2ccc3nccnc3c2P(C)(C)=O)n1 [compound 133, (6-((5-bromo-2-((4-(9-(2-fluoroethyl)-3,9-diazaspiro[5.5]undecan-3-yl)-2-methoxy-5-(1-methyl-1H-pyrazol-4-yl)phenyl)amino)pyrimidin-4-yl)amino)quinoxalin-5-yl)dimethylphosphine oxide]	9.11	9.82	7.08	0.64	2.85
COc1cc(N2CCOC(C)C2)c(-c2cnn(C)c2)cc1Nc1ncc(Br)c(Nc2ccc3nccnc3c2P(C)(C)=O)n1 (stereo not shown) [compound 134]	8.45	9.68	6.50	1.02	7.82
COc1cc(N2CCN(CCF)CC2)c(-c2cnn(C)c2)cc1Nc1ncc(Br)c(Nc2cc3c(cc2P(C)(C)=O)CC3)n1 [compound 138]	7.51	9.28	6.20	9.31	11.9
COCCN1CCC2(CC1)CCN(c1cc(OC)c(Nc3ncc(Br)c(Nc4ccc5nccnc5c4P(C)(C)=O)n3)cc1-c1cnn(C)c1)CC2 [compound 139]	9.24	9.62	7.21	1.59	2.33
COc1cc(N2CCOCC2)c(-c2ccn(C)n2)cc1Nc1ncc(Br)c(Nc2ccc3nccnc3c2P(C)(C)=O)n1 [compound 140]	7.02	8.26	5.44	29.8	62
[2H]C1([2H])OC([2H])([2H])C([2H])([2H])N(c2cc(OC)c(Nc3ncc(C)c(Nc4ccc5nccnc5c4P(C)(C)=O)n3)cc2-c2cnn(C)c2)C1([2H])[2H] [compound 141]	8.94	9.74	6.71	2.26	5.16
COc1cc(N2CCC(C)(O)CC2)c(-c2cnn(C)c2)cc1Nc1ncc(Br)c(Nc2ccc3nccnc3c2P(C)(C)=O)n1 [compound 142]	8.94	9.60	6.71	0.34	2.89
[2H]C([2H])([2H])N(c1cc(OC)c(Nc2ncc(C)c(Nc3ccc4nccnc4c3P(C)(C)=O)n2)cc1-c1cnn(C)c1)C([2H])([2H])[2H] [compound 143]	8.76	9.39	6.38	3.23	10.2
COc1cc(N2CCC3(CC2)CN(C)CCO3)c(-c2cnn(C)c2)cc1Nc1ncc(Br)c(Nc2ccc3nccnc3c2P(C)(C)=O)n1 [compound 144, (6-((5-bromo-2-((2-methoxy-5-(1-methyl-1H-pyrazol-4-yl)-4-(4-methyl-1-oxa-4,9-diazaspiro[5.5]undecan-9-yl)phenyl)amino)pyrimidin-4-yl)amino)quinoxalin-5-yl)dimethylphosphine oxide]	8.56	9.18	7.08	0.35	1.91
[2H]C([2H])([2H])N(c1cc(OC)c(Nc2ncc(Br)c(Nc3ccc4nccnc4c3P(C)(C)=O)n2)cc1-c1cnn(C)c1)C([2H])([2H])[2H] [compound 145]	8.46	9.51	6.69	1.7	2.41
COc1cc(N2CCC3(CN(C)CCO3)C2)c(-c2cnn(C)c2)cc1Nc1ncc(Br)c(Nc2ccc3nccnc3c2P(C)(C)=O)n1 (stereo not shown) [compound 146]	8.07	9.42	6.75	1.44	5.47
COc1cc(N2CCOCC2)c(-c2cnn(C)c2)cc1Nc1ncc(Br)c(Nc2cc3c(cc2N(C)S(C)(=O)=O)CC3)n1 [compound 147, N-(4-((5-bromo-2-((2-methoxy-5-(1-methyl-1H-pyrazol-4-yl)-4-morpholinylphenyl)amino)pyrimidin-4-yl)amino)bicyclo[4.2.0]octa-1,3,5-trien-3-yl)-N-methylmethanesulfonamide]	7.28	8.94	6.32	1.3	2.93
COc1cc(N2CCC3(CCN(CC(F)F)CC3)CC2)c(-c2cnn(C)c2)cc1Nc1ncc(Br)c(Nc2ccc3nccnc3c2P(C)(C)=O)n1 [compound 149]	7.11	8.47	6.42	1.62	3.21
COc1cc(N2CCN(C3COC3)CC2)c(-c2cnn(C)c2)cc1Nc1ncc(Br)c(Nc2ccc3nccnc3c2P(C)(C)=O)n1 [compound 150, (6-((5-bromo-2-((2-methoxy-5-(1-methyl-1H-pyrazol-4-yl)-4-(4-(oxetan-3-yl)piperazin-1-yl)phenyl)amino)pyrimidin-4-yl)amino)quinoxalin-5-yl)dimethylphosphine oxide]	8.61	9.54	6.86	1.57	3.34
COc1cc(N2CCC(OC(C)C)CC2)c(-c2cnn(C)c2)cc1Nc1ncc(Br)c(Nc2ccc3nccnc3c2P(C)(C)=O)n1 [compound 151]	7.42	8.66	6.50	1.84	7.47
COC[C@H]1CN(c2cc(OC)c(Nc3ncc(Br)c(Nc4ccc5nccnc5c4P(C)(C)=O)n3)cc2-c2cnn(C)c2)CCO1 [compound 152]	8.37	9.46	6.88	1.06	4.59
COc1cc(N2CCN(C)C(CF)C2)c(-c2cnn(C)c2)cc1Nc1ncc(Br)c(Nc2ccc3nccnc3c2P(C)(C)=O)n1 (stereo not shown) [compound 153]	8.52	9.66	7.21	1.03	2.89
COc1cc(NC(C)C(F)(F)F)c(-c2cnn(C)c2)cc1Nc1ncc(Br)c(Nc2ccc3nccnc3c2P(C)(C)=O)n1 (stereo not shown) [compound 154]	7.43	9.07	6.33	5.26	15.4
COc1cc(N2CCC(OCC3CC3)CC2)c(-c2cnn(C)c2)cc1Nc1ncc(Br)c(Nc2ccc3nccnc3c2P(C)(C)=O)n1 [compound 156]	7.48	8.42	6.43	1.05	7.29
COc1cc(N2CCN(CC3CC3)CC2)c(-c2cnn(C)c2)cc1Nc1ncc(Br)c(Nc2ccc3nccnc3c2P(C)(C)=O)n1 [compound 157]	8.44	9.48	7.31	1.28	7.05
COc1cc(N2CCC(N3CCN(C)CC3)CC2)c(-c2cnn(C)c2)cc1Nc1ncc(Br)c(Nc2cc3c(cc2N(C)S(C)(=O)=O)CC3)n1 [compound 158]	8.61	9.09	6.78	3.28	6.76
COc1cc(N2CCC(N3CC(F)C3)CC2)c(-c2cnn(C)c2)cc1Nc1ncc(Br)c(Nc2ccc3nccnc3c2P(C)(C)=O)n1 [compound 159]	8.81	9.15	6.94	0.93	4.11
COc1cc(N2CCOCC2)c(-c2cnn(C)c2)cc1Nc1ncc(Br)c(Nc2ccc3ncccc3c2P(C)(C)=O)n1 [compound 160]	8.63	9.59	6.68	1.56	9.04
COc1cc(N2CCN3CCOCC3C2)c(-c2cnn(C)c2)cc1Nc1ncc(Br)c(Nc2ccc3nccnc3c2P(C)(C)=O)n1 (stereo not shown) [compound 161]	8.57	9.41	6.81	2.36	6.39
COCC1CCCN(c2cc(OC)c(Nc3ncc(Br)c(Nc4ccc5nccnc5c4P(C)(C)=O)n3)cc2-c2cnn(C)c2)C1 (stereo not shown) [compound 162]	7.69	8.64	6.29	6.2	18
COc1cc(N2CCC(N3CCO[C@H](C)C3)CC2)c(-c2cnn(C)c2)cc1Nc1ncc(Br)c(Nc2ccc3nccnc3c2P(C)(C)=O)n1 [compound 163]	8.72	9.55	7.14	0.62	1.97
COc1cc(N2CCN(C(C)C)C(CF)C2)c(-c2cnn(C)c2)cc1Nc1ncc(Br)c(Nc2ccc3nccnc3c2P(C)(C)=O)n1 (stereo not shown) [compound 164]	8.28	9.14	6.71	3.22	8.26
